Laboratory results published in ChEMBL document CHEMBL5241093, “Recent advances in the design and discovery of synthetic tyrosinase inhibitors” (Eur J Med Chem, 2021).

Columns and labels:
Tyrosinase [1] = biological target: T1, Tyrosinase (Agaricus bisporus, UniProt O42713); assay: Inhibition of mushroom tyrosinase incubated for 20 mins by spectrophotometric assay
T1 sequence (O42713 whole entry): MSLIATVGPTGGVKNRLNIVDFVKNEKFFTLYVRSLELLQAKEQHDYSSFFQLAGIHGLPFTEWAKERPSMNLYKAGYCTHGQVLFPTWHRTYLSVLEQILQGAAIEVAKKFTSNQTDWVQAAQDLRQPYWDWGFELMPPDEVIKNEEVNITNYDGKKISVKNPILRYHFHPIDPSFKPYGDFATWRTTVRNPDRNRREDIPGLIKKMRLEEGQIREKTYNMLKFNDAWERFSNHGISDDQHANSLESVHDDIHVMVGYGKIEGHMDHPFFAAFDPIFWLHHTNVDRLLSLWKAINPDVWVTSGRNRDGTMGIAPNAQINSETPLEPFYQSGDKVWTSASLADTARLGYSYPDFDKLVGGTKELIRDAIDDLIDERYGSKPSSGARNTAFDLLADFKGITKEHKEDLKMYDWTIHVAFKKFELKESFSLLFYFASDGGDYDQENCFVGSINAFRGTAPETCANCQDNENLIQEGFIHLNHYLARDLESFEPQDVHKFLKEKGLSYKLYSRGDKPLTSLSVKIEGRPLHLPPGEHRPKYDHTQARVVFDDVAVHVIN

B16-F10 = assay: Inhibition of melanin production in mouse B16-F10 cells assessed reduction in melanin level measured after 72 hrs by ELISA assay relative to control; assay type: functional
Tyrosinase [2] = biological target: T1, Tyrosinase; assay: Inhibition of mushroom tyrosinase using L-dopa as substrate assessed as diphenolase activity preincubated for 20 mins followed by substrate addition measured after 10 mins by plate reader analysis
Tyrosinase [3] = biological target: T1, Tyrosinase; assay: Inhibition of mushroom tyrosinase using L-tyrosine as substrate assessed as monophenolase activity preincubated for 20 mins followed by substrate addition measured after 10 mins by plate reader analysis
Tyrosinase [4] = biological target: T1, Tyrosinase; assay: Inhibition of mushroom tyrosinase using L-tyrosine as substrate preincubated for 15 mins followed by substrate addition measured after 30 mins by plate reader analysis
Tyrosinase [5] = biological target: T1, Tyrosinase; assay: Inhibition of mushroom tyrosinase using L-DOPA as substrate incubated for 10 mins by spectrophotometric assay
Tyrosinase [6] = biological target: T1, Tyrosinase; assay: Inhibition of mushroom tyrosinase using L-tyrosine as a substrate incubated for 10 mins
Tyrosinase [7] = biological target: T1, Tyrosinase; assay: Inhibition of mushroom tyrosinase using L-dopa as substrate by spectrophotometric analysis
Tyrosinase [8] = biological target: T1, Tyrosinase; assay: Inhibition of mushroom tyrosinase using L-DOPA as substrate preincubated for 10 mins followed by substrate addition measured after 20 mins by microtitre plate reader analysis
Tyrosinase [9] = biological target: T1, Tyrosinase
Description: Inhibition of mushroom tyrosinase using L-DOPA as substrate assessed as inhibition constant preincubated for 15 mins followed by substrate addition measured after 2 mins by microtitre plate reader analysis

Tyrosinase [10] = biological target: T1, Tyrosinase; assay: Inhibition of mushroom tyrosinase using L-DOPA as substrate by HTS analysis
Tyrosinase [11] = biological target: T1, Tyrosinase; assay: Inhibition of mushroom tyrosinase using L-DOPA as substrate preincubated for 10 mins followed by substrate addition measured after 5 mins
Tyrosinase [12] = biological target: T1, Tyrosinase; assay: Inhibition of mushroom tyrosinase using L-DOPA as substrate preincubated for 10 mins followed by substrate addition measured after 20 mins
Tyrosinase [13] = biological target: T1, Tyrosinase; assay: Inhibition of mushroom tyrosinase using L-dopa as substrate incubated for 30 mins by spectrophotometric analysis
Tyrosinase [14] = biological target: T1, Tyrosinase; assay: Inhibition of mushroom tyrosinase using L-DOPA as substrate incubated for 30 mins
B16 = assay: Anti-melanoma activity against mouse B16 cells assessed as inhibition of tyrosinase activity incubated for 48 hrs by spectrophotometer analysis relative to control; assay type: functional
[15] = Antioxidant activity assessed as DPPH radical scavenging activity incubated for 30 mins under dark condition by microplate reader analysis; assay type: functional
Tyrosinase [16] = biological target: T1, Tyrosinase; assay: Inhibition of mushroom tyrosinase using L-DOPA as substrate incubated for 20 mins by microplate reader analysis
Tyrosinase [17] = biological target: T1, Tyrosinase; assay: Inhibition of mushroom tyrosinase using L-tyrosine as substrate assessed as monophenolase activity
Tyrosinase [18] = biological target: T1, Tyrosinase; assay: Inhibition of mushroom tyrosinase using L-DOPA as substrate assessed as diphenolase activity
Tyrosinase [19] = biological target: T1, Tyrosinase; assay: Inhibition of mushroom tyrosinase using L-dopa as substrate incubated for 30 mins by microplate reader analysis
Tyrosinase [20] = biological target: T1, Tyrosinase; assay: Inhibition of mushroom tyrosinase using L-DOPA as substrate incubated for 20 mins
Tyrosinase [21] = biological target: T1, Tyrosinase; assay: Inhibition of mushroom tyrosinase using L-dopa as substrate assessed as monophenolase activity by microplate reader analysis
Tyrosinase [22] = biological target: T1, Tyrosinase; assay: Inhibition of mushroom tyrosinase using L-tyrosine as substrate assessed as […] activity by microplate reader analysis

Question: For O=C(/C=C/c1cccc(Cl)c1)NCCN1CCOCC1, which IC50 (Tyrosinase [1]) is on record?
Answer: 15.2 µM

Question: For COc1ccc(-c2n[nH]c(S)n2)cc1, which “inhibition (INH)” value (B16-F10) is on record?
Answer: 55%

Question: Which IC50 (Tyrosinase [2]) does the source give for N/C(S)=N/N=C/c1ccc([N+](=O)[O-])cc1 here?
Answer: 1.74 µM

Question: And the IC50 (Tyrosinase [3])?
Answer: 0.05 µM

Question: Which IC50 (Tyrosinase [4]) does the source give for CCCCOC(=O)/C=C/c1ccc(O)cc1 here?
Answer: 69 µM

Question: Which IC50 (Tyrosinase [5]) does the source give for CCOC(OCC)c1ccc(/C=C2\CCC/C(=C\c3ccc(C(OCC)OCC)cc3)C2=O)cc1 here?
Answer: 10.1 µM

Question: For CCOC(OCC)c1ccc(/C=C2\Cc3ccccc3C2=O)cc1, which IC50 (Tyrosinase [5]) is on record?
Answer: 6.83 µM

Question: With CCOC(OCC)c1ccc(/C=C/C(=O)C2CCc3ccccc3C2=O)cc1 (stereo not drawn) as the molecule, how does the IC50 (Tyrosinase [5]) read?
Answer: 5.84 µM

Question: Which IC50 (Tyrosinase [6]) does the source give for O=C(O)CSc1nnc(NC(=S)Nc2cccc(C(F)(F)F)c2)s1 here?
Answer: 15 µM

Question: Which IC50 (Tyrosinase [7]) does the source give for O=C1CSC(c2ccccc2O)N1c1ccc(-c2ccc(N3C(=O)CSC3c3ccccc3O)cc2)cc1 (stereo not drawn) here?
Answer: 0.61 µM

Question: With COc1cc(C2CC(c3cc4ccccc4oc3=O)=NN2c2nc(-c3ccc(Br)cc3)cs2)ccc1OCc1ccccc1 (stereo not drawn) as the molecule, how does the IC50 (Tyrosinase [8]) read?
Answer: < 0.1 µM

Question: Which Ki (Tyrosinase [9]) does the source give for CCn1c2ccccc2c2cc(NC(=O)CSc3nc4ccccc4[nH]3)ccc21 here?
Answer: 1.64 µM

Question: For CC(C)C(=O)Nc1nc(-c2ccc(O)cc2O)cs1, which IC50 (Tyrosinase [10]) is on record?
Answer: 108 µM

Question: For Clc1ccc(Cn2cc(COc3ccc(-c4nc5ccccc5[nH]4)cc3)nn2)cc1Cl, which IC50 (Tyrosinase [11]) is on record?
Answer: 9.42 µM

Question: With Cc1ccc(C(C)C)cc1NC(=O)COC(=O)c1ccc(O)cc1O as the molecule, how does the IC50 (Tyrosinase [12]) read?
Answer: 11 µM

Question: For COc1cc([N+](=O)[O-])ccc1/C=C/C(=N\O)c1cc2ccccc2cc1O, which IC50 (Tyrosinase [13]) is on record?
Answer: 4.77 µM

Question: Which IC50 (Tyrosinase [14]) does the source give for O=C(COC(=O)c1ccc(O)cc1O)Oc1ccc2oc(=O)ccc2c1 here?
Answer: 8.96 µM

Question: With CC(=O)Nc1ccc(/N=N/c2c(N)nc(N)nc2Cl)cc1 as the molecule, how does the IC50 (Tyrosinase [11]) read?
Answer: 24.4 µM

Question: With CC(=O)OC[C@H]1O[C@@H](Oc2ccc(O)cc2)[C@H](O)[C@@H](O)[C@@H]1O as the molecule, how does the “inhibition (INH)” value (B16) read?
Answer: 71.4%

Question: With Cc1cc(OCc2cn(Cc3ccc(F)cc3)nn2)c(C=C2C(=O)NC(=S)NC2=O)cc1Br as the molecule, how does the EC50 [15] read?
Answer: 39.2 µM

Question: And the IC50 (Tyrosinase [16])?
Answer: 24.6 µM

Question: With O=C(OCc1cc(=O)c(O)c[nH]1)[C@H](Cc1ccccc1)NCc1ccccc1 as the molecule, how does the IC50 (Tyrosinase [17]) read?
Answer: 1.95 µM

Question: And the IC50 (Tyrosinase [18])?
Answer: 8.97 µM

Question: Which IC50 (Tyrosinase [19]) does the source give for O=C1/C(=C/c2ccc(O)c(Br)c2)CSc2ccccc21 here?
Answer: 4.1 µM

Question: For OCC1CSC(c2ccc(O)cc2O)S1 (stereo not drawn), which IC50 (Tyrosinase [19]) is on record?
Answer: 13.9 µM

Question: For COc1cc(/C=N/NC(=O)c2ccc(O)c(OC)c2)ccc1O, which IC50 (Tyrosinase [20]) is on record?
Answer: 10 µM

Question: Which results are given for COc1ccccc1/C=C/C=N/Nc1nnc(SCc2cc(=O)c(O)co2)n1C?
Answer: IC50 (Tyrosinase [21]): 20.5 µM; IC50 (Tyrosinase [22]): 7.5 µM
